# Bridge positions count the residues as written; N and C are the ends. Square brackets hold non-standard residues; d marks the D form. Peptide text beside a SMILES is read from it. * marks the point of attachment. hPhe(3-Cl-4-CF3) = N[C@@H](CCc1ccc(C(F)(F)F)c(Cl)c1)C(=O)O; hPhe(3-F,4-CF3) = N[C@@H](CCc1ccc(C(F)(F)F)c(F)c1)C(=O)O; NMePhe(4-CF3) = CN[C@@H](Cc1ccc(C(F)(F)F)cc1)C(=O)O; NMeAbu(4,4,4-F3) = CN[C@@H](CC(F)(F)F)C(=O)O; NMePhe(4-Cl) = CN[C@@H](Cc1ccc(Cl)cc1)C(=O)O; NMePhe(4-Me) = CN[C@@H](Cc1ccc(C)cc1)C(=O)O; NMeNle(6-CHF2) = CN[C@@H](CCCCC(F)F)C(=O)O; NMePhe(4-F) = CN[C@@H](Cc1ccc(F)cc1)C(=O)O; NMeGly(cPent) = CN[C@H](C(=O)O)C1CCCC1; Phe(2-OMe) = COc1ccccc1C[C@H](N)C(=O)O; Phe(3-I) = N[C@@H](Cc1cccc(I)c1)C(=O)O; Pro(4,4-F2) = O=C(O)[C@@H]1CC(F)(F)CN1; NMeCha = CN[C@@H](CC1CCCCC1)C(=O)O; NMeCba = CN[C@@H](CC1CCC1)C(=O)O; NMeChg = CN[C@H](C(=O)O)C1CCCCC1; NMeI = CC[C@H](C)[C@H](NC)C(=O)O; NMeT = CN[C@H](C(=O)O)[C@@H](C)O; hPhe = N[C@@H](CCc1ccccc1)C(=O)O; NMeD = CN[C@@H](CC(=O)O)C(=O)O; NMeL = CN[C@@H](CC(C)C)C(=O)O; Chg = N[C@H](C(=O)O)C1CCCCC1; NMeNle = CCCC[C@H](NC)C(=O)O; dNMeAbu = CC[C@@H](NC)C(=O)O; NMeV = CN[C@H](C(=O)O)C(C)C; d(β3hA) = C[C@@H](N)CC(=O)O; Pip = O=C(O)[C@@H]1CCCCN1; Morpholide = C1CN(*)CCO1; NMeA = CN[C@@H](C)C(=O)O; NMeAib = CNC(C)(C)C(=O)O; Piperidide = C1CCN(*)CC1; dNMeA = CN[C@H](C)C(=O)O; Ac5c = NC1(C(=O)O)CCCC1; Aze = O=C(O)[C@@H]1CCN1; Abu = CC[C@H](N)C(=O)O; Aib = CC(C)(N)C(=O)O; Sar = CNCC(=O)O
# System: Human pancreatic cancer cell line AsPC-1 (G12D mutation Kras)
# Assay: AsPC-1 cell growth inhibition (AsPC-1 CGI)
# Format: cell-based
# Details: read-out: AsPC-1 cell growth inhibition, 50% growth inhibitory concentration (IC50 value); 96 hours, CellTiter-Glo, values classified in ranges
# Experimental: Test compounds were serially dilated with dimethyl sulfoxide, and 200 nL was then dispensed to a U-bottom 96-well plate using Labcyte Echo. […] The cell suspension was dispensed to a. plate containing a test compound at 100 μL per well and incubated at 37° C. in a 5% carbon dioxide gas incubator. 96 hours later, 80 μL of CellTiter-Glo (Promega) was added to each well and fluorescence was measured.
row,Compound,IC50
1,CC[C@H](C)[C@@H]1NC(=O)[C@H](C)N(C)C(=O)C[C@@H](C(=O)N2CCCCC2)N(C)C(=O)[C@H](C(C)C)N(C)C(=O)C2(CCCC2)NC(=O)[C@@H]2CCCN2C(=O)[C@H](CCc2ccc(C(F)(F)F)c(Cl)c2)NC(=O)[C@@H](C)N(C)C(=O)[C@H](Cc2ccc(F)cc2)N(C)C(=O)[C@@H]2CCCN2C(=O)CN(C)C1=O [Compound 1853] ([NMeA]I[Sar]P[NMePhe(4-F)][dNMeA][hPhe(3-Cl-4-CF3)]P[Ac5c][NMeV][NMeD]-Piperidide; lactam N-11),> 0.5 µM
2,CC[C@H](C)[C@@H]1NC(=O)[C@H](CC(C)C)N(C)C(=O)C[C@@H](C(=O)N2CCCCC2)N(C)C(=O)[C@H](CC(C)C)NC(=O)C(C)(C)N(C)C(=O)[C@H](Cc2ccccc2OC)NC(=O)[C@H](Cc2cccc(I)c2)NC(=O)CN(C)C(=O)[C@H](Cc2ccc(C)cc2)N(C)C(=O)[C@@H]2CCN2C(=O)CN(C)C1=O [Compound 459] ([NMeL]I[Sar][Aze][NMePhe(4-Me)][Sar][Phe(3-I)][Phe(2-OMe)][NMeAib]L[NMeD]-Piperidide; lactam N-11),> 0.5 µM
3,CC[C@H](C)[C@@H]1NC(=O)[C@H](CC(C)C)N(C)C(=O)C[C@@H](C(=O)N2CCCCC2)N(C)C(=O)[C@H]([C@@H](C)OC)N(C)C(=O)C2(CCCC2)NC(=O)[C@@H]2CCCN2C(=O)[C@H](CCc2ccc(C(F)(F)F)c(Cl)c2)NC(=O)CN(C)C(=O)[C@H](CC2CCCCC2)N(C)C(=O)CN(C)C(=O)CN(C)C1=O [Compound 1101] ([NMeL]I[Sar][Sar][NMeCha][Sar][hPhe(3-Cl-4-CF3)]P[Ac5c][NMeT](Me)[NMeD]-Piperidide; lactam N-11),> 0.5 µM
4,CC[C@H](C)[C@@H]1NC(=O)[C@H](CC(C)C)N(C)C(=O)C[C@@H](C)NC(=O)[C@H](CC(C)C)N(C)C(=O)C2(CCCC2)NC(=O)[C@@H]2CCCN2C(=O)[C@H](CCc2ccc(C(F)(F)F)c(Cl)c2)NC(=O)CN(C)C(=O)[C@H](CC2CCCCC2)N(C)C(=O)CN(C)C(=O)CN(C)C1=O [Compound 1503] (cyclo([Ac5c][NMeL][d(β3hA)][NMeL]I[Sar][Sar][NMeCha][Sar][hPhe(3-Cl-4-CF3)]P)),> 0.5 µM
5,CC[C@H](C)[C@@H]1NC(=O)[C@H](CC(C)C)N(C)C(=O)C[C@@H](C(=O)N2CCCCC2)N(C)C(=O)[C@H]([C@@H](C)CC)N(C)C(=O)C2(CCCC2)NC(=O)[C@@H]2CCCN2C(=O)[C@H](CCc2ccc(C(F)(F)F)c(Cl)c2)NC(=O)CN(C)C(=O)[C@H](Cc2ccc(C(F)(F)F)cc2)N(C)C(=O)[C@@H]2CCN2C(=O)[C@H](C)N(C)C1=O [Compound 630] ([NMeL]I[NMeA][Aze][NMePhe(4-CF3)][Sar][hPhe(3-Cl-4-CF3)]P[Ac5c][NMeI][NMeD]-Piperidide; lactam N-11),≤ 0.02 µM
6,CC[C@H](C)[C@@H]1NC(=O)[C@H](CC(C)C)N(C)C(=O)C[C@@H](C(=O)N2CCCCC2)N(C)C(=O)[C@H](C2CCCCC2)N(C)C(=O)C2(CCCC2)NC(=O)[C@@H]2CCCCN2C(=O)[C@H](CCc2ccc(C(F)(F)F)c(Cl)c2)NC(=O)CN(C)C(=O)[C@H](CC2CCCCC2)N(C)C(=O)CN(C)C(=O)CN(C)C1=O [Compound 728] ([NMeL]I[Sar][Sar][NMeCha][Sar][hPhe(3-Cl-4-CF3)][Pip][Ac5c][NMeChg][NMeD]-Piperidide; lactam N-11),> 0.5 µM
7,CC[C@H](C)[C@@H]1NC(=O)[C@H](CC(C)C)N(C)C(=O)C[C@@H](C(=O)N2CCCCC2)N(C)C(=O)[C@H](C(C)C)N(C)C(=O)C2(CCCC2)NC(=O)[C@H](C)NC(=O)[C@H](CCc2ccc(C(F)(F)F)c(Cl)c2)NC(=O)CN(C)C(=O)[C@H](CC2CCCCC2)N(C)C(=O)[C@@H]2CCN2C(=O)[C@H](C)N(C)C1=O [Compound 1316] ([NMeL]I[NMeA][Aze][NMeCha][Sar][hPhe(3-Cl-4-CF3)]A[Ac5c][NMeV][NMeD]-Piperidide; lactam N-11),> 0.5 µM
8,CC[C@H](C)[C@@H]1NC(=O)[C@H](CC2CCC2)N(C)C(=O)C[C@@H](C)NC(=O)[C@H](C(C)C)N(C)C(=O)C2(CCCC2)NC(=O)[C@@H]2CCCN2C(=O)[C@H](CCc2ccc(C(F)(F)F)c(Cl)c2)NC(=O)CN(C)C(=O)[C@H](CC2CCCCC2)N(C)C(=O)CN(C)C(=O)CN(C)C1=O [Compound 230] (cyclo([Ac5c][NMeV][d(β3hA)][NMeCba]I[Sar][Sar][NMeCha][Sar][hPhe(3-Cl-4-CF3)]P)),> 0.5 µM
9,CC[C@H](C)[C@@H]1NC(=O)[C@H](CC(C)C)N(C)C(=O)C[C@@H](C(=O)N2CCCCC2)N(C)C(=O)[C@H](CC(C)C)NC(=O)C(C)(C)N(C)C(=O)[C@H](Cc2ccc(OC)cc2)NC(=O)[C@H](Cc2cccc(I)c2)NC(=O)CN(C)C(=O)[C@H](CC2CCCCC2)N(C)C(=O)[C@@H]2CCN2C(=O)[C@H](C)N(C)C1=O [Compound 169] ([NMeL]I[NMeA][Aze][NMeCha][Sar][Phe(3-I)]Y(Me)[NMeAib]L[NMeD]-Piperidide; lactam N-11),> 0.5 µM
10,CC[C@@H]1C(=O)NC2(CCCC2)C(=O)N(C)[C@@H](C2CCCC2)C(=O)N(C)[C@H](C(=O)N2CCCCC2)CC(=O)N(C)[C@@H](CC(C)C)C(=O)N[C@@H]([C@@H](C)CC)C(=O)N(C)[C@@H](C)C(=O)N2CC[C@H]2C(=O)N(C)[C@@H](CC2CCCCC2)C(=O)N(C)CC(=O)N[C@@H](CCc2ccc(C(F)(F)F)c(Cl)c2)C(=O)N1C [Compound 1441] ([NMeL]I[NMeA][Aze][NMeCha][Sar][hPhe(3-Cl-4-CF3)][dNMeAbu][Ac5c][NMeGly(cPent)][NMeD]-Piperidide; lactam N-11),> 0.5 µM
11,"CCCC[C@H]1C(=O)N[C@H](C)CC(=O)N(C)[C@@H](CC(C)C)C(=O)N[C@@H]([C@@H](C)CC)C(=O)N(C)CC(=O)N(C)CC(=O)N(C)[C@@H](CC2CCCCC2)C(=O)N(C)CC(=O)N[C@@H](CCc2ccc(C(F)(F)F)c(F)c2)C(=O)N2CCC[C@H]2C(=O)NC2(CCCC2)C(=O)N1C [Compound 1518] (cyclo([Ac5c][NMeNle][d(β3hA)][NMeL]I[Sar][Sar][NMeCha][Sar][hPhe(3-F,4-CF3)]P))",> 0.5 µM
12,CC[C@@H]1NC(=O)[C@H](Cc2cccc(I)c2)NC(=O)CN(C)C(=O)[C@H](Cc2ccc(Cl)cc2)N(C)C(=O)CN(C)C(=O)CN(C)C(=O)[C@H]([C@@H](C)CC)NC(=O)[C@H](CC(C)C)N(C)C(=O)C[C@@H](C(=O)N2CCCCC2)N(C)C(=O)[C@H](CC(C)C)NC(=O)C(C)(C)N(C)C1=O [Compound 457] ([NMeL]I[Sar][Sar][NMePhe(4-Cl)][Sar][Phe(3-I)][Abu][NMeAib]L[NMeD]-Piperidide; lactam N-11),> 0.5 µM
13,"CC[C@H](C)[C@@H]1NC(=O)[C@H](CC(F)(F)F)N(C)C(=O)C[C@@H](C(=O)N2CCOCC2)N(C)C(=O)[C@H](C2CCCCC2)N(C)C(=O)C2(CCCC2)NC(=O)[C@@H]2CC(F)(F)CN2C(=O)[C@H](CCc2ccc(C(F)(F)F)c(Cl)c2)NC(=O)CN(C)C(=O)[C@H](Cc2ccc(C(F)(F)F)cc2)N(C)C(=O)CN(C)C(=O)CN(C)C1=O [Compound 1182] ([NMeAbu(4,4,4-F3)]I[Sar][Sar][NMePhe(4-CF3)][Sar][hPhe(3-Cl-4-CF3)][Pro(4,4-F2)][Ac5c][NMeChg][NMeD]-Morpholide; lactam N-11)",≤ 0.02 µM
14,"CC(C)C[C@H]1C(=O)N[C@@H](C2CCCCC2)C(=O)N(C)CC(=O)N(C)CC(=O)N(C)[C@@H](CC2CCCCC2)C(=O)N(C)CC(=O)N[C@@H](CCc2ccc(C(F)(F)F)c(F)c2)C(=O)N2CCC[C@H]2C(=O)NC2(CCCC2)C(=O)N(C)[C@@H](CC(C)C)C(=O)N[C@H](C)CC(=O)N1C [Compound 1527] (cyclo([Ac5c][NMeL][d(β3hA)][NMeL][Chg][Sar][Sar][NMeCha][Sar][hPhe(3-F,4-CF3)]P))",> 0.5 µM
15,"CC[C@H](C)[C@@H]1NC(=O)[C@H](CC(C)C)N(C)C(=O)C[C@@H](C)NC(=O)[C@H](CC(C)C)N(C)C(=O)C(C)(C)NC(=O)[C@H](CC(C)C)N(C)C(=O)[C@H](CCc2ccc(C(F)(F)F)c(F)c2)NC(=O)CN(C)C(=O)[C@H](CCCCC(F)F)N(C)C(=O)CN(C)C(=O)CN(C)C1=O [Compound 1526] (cyclo([Aib][NMeL][d(β3hA)][NMeL]I[Sar][Sar][NMeNle(6-CHF2)][Sar][hPhe(3-F,4-CF3)][NMeL]))",> 0.5 µM
16,CC[C@H](C)[C@@H]1NC(=O)[C@H](CC(C)C)N(C)C(=O)C[C@@H](C(=O)N2CCCCC2)N(C)C(=O)[C@H](CC(C)C)NC(=O)C(C)(C)N(C)C(=O)[C@H](CCc2ccccc2)NC(=O)[C@H](Cc2cccc(I)c2)NC(=O)CN(C)C(=O)[C@H](Cc2ccc(C)cc2)N(C)C(=O)[C@@H]2CCN2C(=O)CN(C)C1=O [Compound 442] ([NMeL]I[Sar][Aze][NMePhe(4-Me)][Sar][Phe(3-I)][hPhe][NMeAib]L[NMeD]-Piperidide; lactam N-11),> 0.5 µM
17,"CC[C@H](C)[C@@H]1NC(=O)[C@H](CC(C)C)N(C)C(=O)C[C@@H](C(=O)N2CCCCC2)N(C)C(=O)[C@H](C(C)C)N(C)C(=O)C(C)(C)NC(=O)[C@@H]2CCCN2C(=O)[C@H](CCc2ccc(C(F)(F)F)c(F)c2)NC(=O)CN(C)C(=O)[C@H](CC2CCCCC2)N(C)C(=O)CN(C)C(=O)CN(C)C1=O [Compound 522] ([NMeL]I[Sar][Sar][NMeCha][Sar][hPhe(3-F,4-CF3)]P[Aib][NMeV][NMeD]-Piperidide; lactam N-11)",> 0.5 µM
18,CC[C@H](C)[C@@H]1NC(=O)[C@H](CC(C)C)N(C)C(=O)C[C@@H](C(=O)N2CCCCC2)N(C)C(=O)[C@H](C2CCCCC2)N(C)C(=O)C2(CCCC2)NC(=O)[C@@H]2CCCN2C(=O)[C@H](CCc2ccc(C(F)(F)F)c(Cl)c2)NC(=O)CN(C)C(=O)[C@H](C)N(C)C(=O)CN(C)C(=O)CN(C)C1=O [Compound 1681] ([NMeL]I[Sar][Sar][NMeA][Sar][hPhe(3-Cl-4-CF3)]P[Ac5c][NMeChg][NMeD]-Piperidide; lactam N-11),> 0.5 µM
